Results taken from patent US20260297060A1, “COMPOUNDS FOR THE DEGRADATION OF MUTANT BRAF” (C4 THERAPEUTICS, INC., priority 2023, published 2026).
Like-named read-outs stand apart in the source and are kept apart here.

Columns and labels:
BRAF V600E = biological target: T1, BRAF V600E (Homo sapiens, UniProt P15056+Q96SW2, V600E); assay: BRAF V600E HiBiT Degradation Assay; format: cell-based
T1 construct: knock-in of the HiBiT tag to the endogenous BRAF V600E locus; host or cells: A375.10 (A375 clonal line, CRISPR HiBiT knock-in at the endogenous BRAF V600E locus)
Outline: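 Endogenous HiBiT knock-in on BRAF V600E in A375 cells (clone A375.10); 11-point half-log series, top 10 μM, 2, 6 or 24 h at 37° C. Lytic HiBiT luminescence, background-subtracted, normalized to DMSO; 4-parameter fit gives DC50, Emax (residual protein) and IP (inflection point).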

A375-NRAS^Q61K cells = assay: CTGlo Cell Viability Assay, A375-NRAS^Q61K (A375.11) cells, 96 hours; format: cell-based, human; conditions: A375.11 (A375-NRAS^Q61K) cells; for CTGlo A375.11 96 hours Emax / Emax: lowest % viability achieved
Outline: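 A375 cells carrying BRAF V600E and NRAS Q61K were seeded at 250 cells/well with a 10-point half-log dose series (max 10 μM final). After 96 h at 37 °C, viability was read as ATP luminescence (CellTiter-Glo), background-subtracted and normalized to DMSO (100%). GI50 from 4-parameter fit; Emax is the lowest % viability.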

[1] = A375.10 cells, BRAF V600E, 2 hours, inflection point, read-out: HiBiT-Degradation A375.10 BRAF 2 hours IP
[2] = A375.10 cells, BRAF V600E, 2 hours, read-out: HiBiT-Degradation A375.10 BRAF 2 hours DC50
[3] = A375.10 cells, BRAF V600E, 2 hours, residual protein remaining, read-out: HiBiT-Degradation A375.10 BRAF 2 hours Emax
[4] = A375.10 cells, HiBiT, BRAF V600E, 24 hours, read-out: HiBiT-Degradation A375.10 BRAF 24 hours DC50
[5] = A375.10 cells, HiBiT, BRAF V600E, 24 hours, read-out: HiBiT-Degradation A375.10 BRAF 24 hours Emax
[6] = A375.10 cells, HiBiT, BRAF V600E, 24 hours, read-out: HiBiT-Degradation A375.10 BRAF 24 hours IP
[7] = A375.10 cells, BRAF V600E, 2 hours, residual protein remaining
[8] = read-out: HiBiT-Degradation A375.10 BRAF 2 hours Emax, A375.10 cells, BRAF V600E, 2 hours, residual protein remaining

T1 sequence (P15056 whole entry V600E): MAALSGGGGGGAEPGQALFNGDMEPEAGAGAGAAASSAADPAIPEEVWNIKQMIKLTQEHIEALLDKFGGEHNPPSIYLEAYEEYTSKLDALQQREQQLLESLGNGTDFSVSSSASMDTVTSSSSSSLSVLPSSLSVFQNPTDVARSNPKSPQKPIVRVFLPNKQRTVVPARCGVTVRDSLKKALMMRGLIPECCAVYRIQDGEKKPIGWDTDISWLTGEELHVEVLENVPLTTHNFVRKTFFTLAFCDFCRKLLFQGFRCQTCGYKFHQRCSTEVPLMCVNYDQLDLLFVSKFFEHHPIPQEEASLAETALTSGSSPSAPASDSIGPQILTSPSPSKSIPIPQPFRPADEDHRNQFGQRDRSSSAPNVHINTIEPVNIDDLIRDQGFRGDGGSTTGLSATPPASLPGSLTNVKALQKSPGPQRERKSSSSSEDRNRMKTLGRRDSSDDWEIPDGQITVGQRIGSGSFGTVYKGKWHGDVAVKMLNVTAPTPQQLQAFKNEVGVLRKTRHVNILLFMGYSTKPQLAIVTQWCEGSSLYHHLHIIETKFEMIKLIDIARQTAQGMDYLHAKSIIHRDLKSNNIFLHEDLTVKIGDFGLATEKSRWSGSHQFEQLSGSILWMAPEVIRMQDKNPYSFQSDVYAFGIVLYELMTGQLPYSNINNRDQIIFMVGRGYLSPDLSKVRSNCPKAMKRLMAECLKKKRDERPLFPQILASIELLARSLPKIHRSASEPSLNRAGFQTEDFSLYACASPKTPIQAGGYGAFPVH
T1 sequence (Q96SW2 whole entry): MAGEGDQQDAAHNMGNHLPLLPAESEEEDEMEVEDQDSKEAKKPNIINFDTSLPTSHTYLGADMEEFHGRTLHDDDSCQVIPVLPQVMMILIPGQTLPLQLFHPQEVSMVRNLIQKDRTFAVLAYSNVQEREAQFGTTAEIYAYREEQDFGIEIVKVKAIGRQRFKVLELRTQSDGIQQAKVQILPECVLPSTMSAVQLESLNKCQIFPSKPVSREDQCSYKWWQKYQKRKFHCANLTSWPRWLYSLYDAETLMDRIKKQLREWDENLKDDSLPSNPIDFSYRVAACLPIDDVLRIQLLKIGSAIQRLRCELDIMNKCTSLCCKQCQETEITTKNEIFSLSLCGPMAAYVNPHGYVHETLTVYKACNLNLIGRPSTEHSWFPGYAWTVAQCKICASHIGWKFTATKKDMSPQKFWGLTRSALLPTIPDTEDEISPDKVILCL
T1 sequence (Q16531 whole entry partner): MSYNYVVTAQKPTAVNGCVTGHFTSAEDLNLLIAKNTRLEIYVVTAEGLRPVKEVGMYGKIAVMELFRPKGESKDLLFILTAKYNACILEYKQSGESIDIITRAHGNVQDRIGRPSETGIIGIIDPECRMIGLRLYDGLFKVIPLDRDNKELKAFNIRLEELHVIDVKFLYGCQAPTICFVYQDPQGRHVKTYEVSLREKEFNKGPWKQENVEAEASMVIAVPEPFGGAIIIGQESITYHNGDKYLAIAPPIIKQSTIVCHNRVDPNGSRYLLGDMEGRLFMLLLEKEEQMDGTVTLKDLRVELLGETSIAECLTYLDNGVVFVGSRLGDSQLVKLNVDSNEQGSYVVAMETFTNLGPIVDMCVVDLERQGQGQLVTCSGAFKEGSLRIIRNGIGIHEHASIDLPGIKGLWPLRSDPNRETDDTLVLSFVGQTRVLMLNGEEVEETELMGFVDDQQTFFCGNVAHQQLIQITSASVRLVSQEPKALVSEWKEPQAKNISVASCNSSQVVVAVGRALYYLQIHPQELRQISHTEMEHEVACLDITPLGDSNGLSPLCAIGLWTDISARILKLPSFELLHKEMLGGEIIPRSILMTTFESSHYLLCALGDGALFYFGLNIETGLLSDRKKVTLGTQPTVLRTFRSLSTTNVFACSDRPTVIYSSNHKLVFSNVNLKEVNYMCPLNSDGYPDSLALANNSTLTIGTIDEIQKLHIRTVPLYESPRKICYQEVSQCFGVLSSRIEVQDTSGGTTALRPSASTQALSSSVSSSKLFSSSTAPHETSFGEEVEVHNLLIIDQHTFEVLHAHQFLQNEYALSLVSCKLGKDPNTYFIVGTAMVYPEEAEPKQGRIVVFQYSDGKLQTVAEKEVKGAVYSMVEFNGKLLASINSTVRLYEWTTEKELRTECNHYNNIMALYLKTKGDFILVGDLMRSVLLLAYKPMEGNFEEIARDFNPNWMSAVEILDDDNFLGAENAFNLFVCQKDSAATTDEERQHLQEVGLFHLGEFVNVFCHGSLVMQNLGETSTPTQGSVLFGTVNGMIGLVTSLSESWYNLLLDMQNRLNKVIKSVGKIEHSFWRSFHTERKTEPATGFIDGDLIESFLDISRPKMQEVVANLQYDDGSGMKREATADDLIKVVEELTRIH

Row | SMILES | DC50 (BRAF V600E; [1]) [nM] | DC50 (BRAF V600E; [2]) [nM] | Emax (BRAF V600E; [3]) [%] | GI50 (A375-NRAS^Q61K cells) [nM] | CTGlo A375.11 96 hours Emax (A375-NRAS^Q61K cells) | GI50 (A375-NRAS^Q61K cells; Homo sapiens, 96 h) [nM] | Emax (A375-NRAS^Q61K cells; Homo sapiens, 96 h) [%] | HiBiT-Degradation A375.10 BRAF 2 hours Emax (BRAF V600E; [7]) | also measured
1 | CCN(C)S(=O)(=O)Nc1ccc(F)c(Oc2ccc3ncn(C4CC5(CCN(C6CCC(c7cc8c(cc7F)c(N7CCC(=O)NC7=O)nn8C)CC6)C5)C4)c(=O)c3c2)c1C#N (single isomer, unassigned) [Compound 206, 6-[2-cyano-3-[[ethyl(methyl)sulfamoyl]amino]-6-fluoro-phenoxy]-3-[6-[4-[3-(2,4-dioxohexahydropyrimidin-1-yl)-5-fluoro-1-methyl-indazol-6-yl]cyclohexyl]-6-azaspiro[3.4]octan-2-yl]-4-oxo-quinazoline] | < 1000 | < 1000 | < 50 | < 1000 | ** (<90% and >50%) |  |  |  | DC50 (BRAF V600E; [4]): < 1000 nM; Emax (BRAF V600E; [5]): < 50%; DC50 (BRAF V600E; [6]): < 1000 nM
2 | CN(CCO)S(=O)(=O)Nc1ccc(F)c(Oc2ccc3ncn(C4CC5(CCN(C6CC7(C6)CN(c6cc8c(cc6F)c(N6CCC(=O)NC6=O)nn8C)C7)CC5)C4)c(=O)c3c2)c1F (stereo not drawn) [Compound 197, 6-[2,6-difluoro-3-[[2-hydroxyethyl(methyl)sulfamoyl]amino]phenoxy]-3-[7-[2-[3-(2,4-dioxohexahydropyrimidin-1-yl)-5-fluoro-1-methyl-indazol-6-yl]-2-azaspiro[3.3]heptan-6-yl]-7-azaspiro[3.5]nonan-2-yl]-4-oxo-quinazoline] | < 1000 | 1000 to 10000 | 50 to 90 |  |  | 1000 to 10000 | 50 to 90 |  | 
3 | CCN(C)S(=O)(=O)Nc1ccc(F)c(Oc2ccc3ncn([C@H]4COC5(CCC(N6CC7(CN(c8ccc(NC9CCC(=O)NC9=O)cc8F)C7)C6)CC5)C4)c(=O)c3c2)c1C#N (single isomer, unassigned) [Compound 192] | < 1000 | < 1000 |  | > 10000 | *** (<=50%) |  |  |  | HiBiT-Degradation A375.10 BRAF 2 hours Emax (BRAF V600E): ** (<90% and >50%)
4 | CCN(C)S(=O)(=O)Nc1ccc(F)c(Oc2ccc3ncn([C@H]4COC5(CCN(C6CCC(c7ccc(NC8CCC(=O)NC8=O)cc7F)CC6)CC5)C4)c(=O)c3c2F)c1C#N (single isomer, unassigned) [Compound 51] | < 1000 | < 1000 |  | 1000 to 10000 | *** (<=50%) |  |  | ** (<90% and >50%) | 
5 | CCN(C)S(=O)(=O)Nc1ccc(F)c(Oc2ccc3ncn(CCC4CCN(C5CCC(c6cc7c(cc6F)c(N6CCC(=O)NC6=O)nn7C)CC5)CC4)c(=O)c3c2)c1C#N (single isomer, unassigned) [Compound 137, 6-[2-cyano-3-[[ethyl(methyl)sulfamoyl]amino]-6-fluoro-phenoxy]-3-[2-[1-[4-[3-(2,4-dioxohexahydropyrimidin-1-yl)-5-fluoro-1-methyl-indazol-6-yl]cyclohexyl]-4-piperidyl]ethyl]-4-oxo-quinazoline] | < 1000 | < 1000 | 50 to 90 |  |  | 1000 to 10000 | 50 to 90 |  | 
6 | CCN(C)S(=O)(=O)Nc1ccc(F)c(Oc2ccc3ncn([C@H]4CO[C@]5(CCN(C6CCC(c7cc8c(cc7F)c(N7CCC(=O)NC7=O)nn8C)CC6)C5)C4)c(=O)c3c2)c1C#N (single isomer, unassigned) [Compound 288] | < 1000 | 1000 to 10000 | 50 to 90 | > 10000 |  |  | 50 to 90 |  | 
7 | CCN(C)S(=O)(=O)Nc1ccc(F)c(Oc2ccc3ncn([C@H]4CO[C@]5(CCN(C6CCC(c7cc8c(cc7F)c(N7CCC(=O)NC7=O)nn8C)CC6)C5)C4)c(=O)c3c2)c1C#N (single isomer, unassigned) [Compound 289] | < 1000 | < 1000 |  | < 1000 | *** (<=50%) |  |  | *** (<=50%) | DC50 (BRAF V600E; [4]): < 1000 nM; Emax (BRAF V600E; [5]): < 50%; DC50 (BRAF V600E; [6]): < 1000 nM
8 | CCN(C)S(=O)(=O)Nc1ccc(F)c(Oc2ccc3ncc([C@@H]4COC5(CCN(C6CCC(c7cc8c(cc7F)c(N7CCC(=O)NC7=O)nn8C)CC6F)CC5)C4)nc3c2)c1C#N (single isomer, unassigned) [Compound 163] | < 1000 | < 1000 |  |  |  | 1000 to 10000 | 50 to 90 |  | Emax (BRAF V600E; [8]): < 50%
9 | CCN(C)S(=O)(=O)Nc1ccc(F)c(Oc2ccc3ncn([C@H]4COC5(CCC(N6CC7(CN(c8ccc(NC9CCC(=O)NC9=O)cc8F)C7)C6)CC5)C4)c(=O)c3c2)c1C#N (single isomer, unassigned) [Compound 191] | < 1000 | < 1000 |  | < 1000 |  |  | < 50 |  | Emax (BRAF V600E; [8]): < 50%
10 | CCN(C)S(=O)(=O)Nc1ccc(F)c(Oc2ccc3ncn(C4CC5(CCN(C6CCC(c7cc8c(cc7F)c(N7CCC(=O)NC7=O)nn8C)CC6)C5)C4)c(=O)c3c2)c1C#N (single isomer, unassigned) [Compound 205, 6-[2-cyano-3-[[ethyl(methyl)sulfamoyl]amino]-6-fluoro-phenoxy]-3-[6-[4-[3-(2,4-dioxohexahydropyrimidin-1-yl)-5-fluoro-1-methyl-indazol-6-yl]cyclohexyl]-6-azaspiro[3.4]octan-2-yl]-4-oxo-quinazoline] | < 1000 | > 10000 |  | > 10000 |  |  | 50 to 90 | ** (<90% and >50%) | 
11 | CO[C@@H]1CCN(S(=O)(=O)Nc2ccc(F)c(Oc3ccc4ncn(C5CC6(CCN(C7CCC(c8cc9c(cc8F)c(N8CCC(=O)NC8=O)nn9C)CC7)CC6)C5)c(=O)c4c3)c2C#N)C1 (single isomer, unassigned) [Compound 102] | < 1000 | < 1000 |  | < 1000 | *** (<=50%) |  |  | *** (<=50%) | DC50 (BRAF V600E; A375.10 cells, BRAF V600E, 6 hours, inflection point, read-out: HiBiT-Degradation A375.10 BRAF 6 hours IP): < 1000 nM; DC50 (BRAF V600E; A375.10 cells, BRAF V600E, 6 hours, read-out: HiBiT-Degradation A375.10 BRAF 6 hours DC50): < 1000 nM; HiBiT-Degradation A375.10 BRAF 6 hours Emax (BRAF V600E; A375.10 cells, BRAF V600E, 6 hours, residual protein remaining): *** (<=50%); HiBiT-Degradation A375.10 BRAF 24 hours Emax (BRAF V600E; A375.10 cells, HiBiT, BRAF V600E, 24 hours): *** (<=50%); DC50 (BRAF V600E; [4]): < 1000 nM; DC50 (BRAF V600E; [6]): < 1000 nM
12 | CN(CCO)S(=O)(=O)Nc1ccc(F)c(Oc2ccc3ncn([C@H]4COC5(CCN(C6CC7(C6)CN(c6cc8c(cc6F)c(N6CCC(=O)NC6=O)nn8C)C7)CC5)C4)c(=O)c3c2)c1C#N [Compound 130, (3R)-3-[6-[2-cyano-6-fluoro-3-[[2-hydroxyethyl(methyl)sulfamoyl]amino]phenoxy]-4-oxo-quinazolin-3-yl]-8-[2-[3-(2,4-dioxohexahydropyrimidin-1-yl)-5-fluoro-1-methyl-indazol-6-yl]-2-azaspiro[3.3]heptan-6-yl]-1-oxa-8-azaspiro[4.5]decane] | < 1000 | < 1000 | 50 to 90 |  |  | > 10000 | 50 to 90 |  | 
13 | CCN(C)S(=O)(=O)Nc1ccc(F)c(Oc2ccc3ncn([C@H]4COC5(CCC(N6C7COCC6CC(c6cc8c(cc6F)c(N6CCC(=O)NC6=O)nn8C)C7)CC5)C4)c(=O)c3c2)c1C#N (single isomer, unassigned) [Compound 155] | < 1000 | < 1000 | 50 to 90 |  |  | > 10000 | 50 to 90 |  | 
14 | CCN(C)S(=O)(=O)Nc1ccc(F)c(Oc2ccc3ncn(C4CCC(N5CC6(CCN(c7cc8c(cc7F)c(N7CCC(=O)NC7=O)nn8C)CC6)C5)CC4)c(=O)c3c2)c1C#N (single isomer, unassigned) [Compound 222, 6-[2-cyano-3-[[ethyl(methyl)sulfamoyl]amino]-6-fluoro-phenoxy]-3-[4-[7-[3-(2,4-dioxohexahydropyrimidin-1-yl)-5-fluoro-1-methyl-indazol-6-yl]-2,7-diazaspiro[3.5]nonan-2-yl]cyclohexyl]-4-oxo-quinazoline] | < 1000 | < 1000 |  | < 1000 | ** (<90% and >50%) |  |  | *** (<=50%) | 
15 | N#Cc1c(NS(=O)(=O)N2CC[C@@H](F)C2)ccc(F)c1Oc1ccc2ncn(C3COC4(CCN(C5CCC(c6ccc(NC7CCC(=O)NC7=O)cc6F)CC5)CC4)C3)c(=O)c2c1 (single isomer, unassigned) [Compound 143] | < 1000 | < 1000 | < 50 |  |  | < 1000 | < 50 |  | 
